{"source": "patent US20050011468A1", "about": "“Use of methylnaltrexone in treating gastrointestinal dysfunction in equines” (priority 2002, published 2005)", "key": {"[1]": {"test_system": "bowel peristalsis / gastric emptying", "details": "one burn patient with postoperative colic; infusion 0.3 mg/kg over 15 minutes; during drug administration; cited from earlier work"}, "[2]": {"test_system": "bowel peristalsis / gastric emptying", "assay": "postoperative colic (ileus) in a burn patient treated with methylnaltrexone infusion", "format": "in vivo, human", "details": "following administration of the drug (unpublished data)", "source_text": "Recent human data support the role of endogenous opioids, including endorphins, in the pathogenesis of postoperative ileus in humans. See Taguchi A., et al., “Selective postoperative inhibition of gastrointestinal opioid receptors,” New Engl. J. Med. 345:935-40, 2001. No reference is made to either equine colic or the etiology of perioperative management of equines or other animals. […] Prior to administration, there had been no evidence of bowel peristalsis and no passage of flatus. See Moss J., et al., “Selective postoperative inhibition of gastrointestinal opioid receptors,” (correspondence) New Engl. J. Med. 346(6):455 (2002)."}, "morphine-induced rage": {"test_system": "morphine-induced rage", "details": "in an animal; cited from earlier work"}, "[3]": {"details": "cited from earlier work"}, "[4]": {"details": "in vivo; cited from earlier work"}, "gut motility": {"test_system": "gut motility", "details": "β-endorphin homologues from six species; read-out: IC50 on the standard model of gut motility; cited from earlier work"}}, "data": [{"compound": "C[N@+]1(CC2CC2)CC[C@]23c4c5ccc(O)c4O[C@H]2C(=O)CC[C@@]3(O)[C@H]1C5", "note": "[methylnaltrexone]", "values": [{"measurement": "bowel sounds and flatus", "setting": "[1]", "result": "prompt restoration of bowel sounds and flatus"}, {"measurement": "gastric residuals", "setting": "[2]", "result": "markedly reduced"}, {"measurement": "severity of morphine-induced rage", "setting": "morphine-induced rage", "result": "minimize the severity"}, {"measurement": "absorption after oral administration", "setting": "[3]; from the stomach and bowel", "result": "rapidly absorbed"}, {"measurement": "time to initial plasma levels", "setting": "[3]; oral administration, non-enteric coated compound", "result": "5 to 10", "unit": "min"}, {"measurement": "crossing of the blood-brain-barrier", "setting": "[4]", "result": "does not cross the blood-brain-barrier"}]}, {"compound": "human endorphin: human homologue of β-endorphin, IC50 printed as 'that of humans'", "values": [{"measurement": "IC50", "setting": "gut motility", "result": 12.2, "unit": "nM"}]}]}
